Laboratory results from PubChem BioAssay (NCI).
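Method: 48-hour compound exposure of cells in 96-well plates, five concentrations, linear interpolation of endpoints. GI50 = concentration required for 50% inhibition of growth. Definition used: TGI = concentration required for complete inhibition of growth.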

How the values were obtained:
Assay in all cases: NCI-60 cell line screen, 48 h
M14 melanoma = test system: M14 melanoma
SK-MEL-28 melanoma = test system: SK-MEL-28 melanoma
SK-OV-3 ovarian = test system: SK-OV-3 ovarian
SNB-19 CNS = test system: SNB-19 CNS
SNB-75 CNS = test system: SNB-75 CNS
HS 578T breast = test system: HS 578T breast
OVCAR-8 ovarian = test system: OVCAR-8 ovarian
SF-539 CNS = test system: SF-539 CNS
UO-31 renal = test system: UO-31 renal
UACC-62 melanoma = test system: UACC-62 melanoma

| Compound | GI50 (M14 melanoma) [µM] | TGI (M14 melanoma) [µM] | GI50 (SK-MEL-28 melanoma) [µM] | TGI (SK-MEL-28 melanoma) [µM] | GI50 (SK-OV-3 ovarian) [µM] | TGI (SK-OV-3 ovarian) [µM] | GI50 (SNB-19 CNS) [µM] | TGI (SNB-19 CNS) [µM] | GI50 (SNB-75 CNS) [µM] | TGI (SNB-75 CNS) [µM] | GI50 (HS 578T breast) [µM] | TGI (HS 578T breast) [µM] | GI50 (OVCAR-8 ovarian) [µM] | TGI (OVCAR-8 ovarian) [µM] | GI50 (SF-539 CNS) [µM] | TGI (SF-539 CNS) [µM] | GI50 (UO-31 renal) [µM] | TGI (UO-31 renal) [µM] | GI50 (UACC-62 melanoma) [µM] | TGI (UACC-62 melanoma) [µM] |
| --- | --- | --- | --- | --- | --- | --- | --- | --- | --- | --- | --- | --- | --- | --- | --- | --- | --- | --- | --- | --- |
| CNC(=O)c1ccc(N2C(=S)N(c3ccc(C#N)c(C(F)(F)F)c3)C(=O)C2(C)C)cc1F | 32.4 | > 65.3 | > 51.8 | > 96.1 | > 51 | > 93.1 | > 61.2 | > 100 | 42.2 | > 79.9 | > 43.1 | > 86.8 | 50.2 | > 100 | > 48.6 | > 87.3 | 8.83 | 34.9 | 26.9 | > 72.4 |
| CC(=O)N1C/C(=C/c2ccc(Cl)cc2)C(=O)/C(=C/c2ccc(Cl)cc2)C1 | 0.735 | 2.11 | 1.54 | 3.2 | 1.61 | 3.39 | 1.14 | 2.49 | 0.963 | 2.64 | 1.43 | 5.24 | 0.463 | 2.17 | 0.785 | 2.03 | 0.887 | 2.35 | 0.664 | 1.84 |
| C[C@]12CC[C@@H]3c4cc(-c5ccc(F)cc5)c(O)cc4CC[C@H]3[C@@H]1CC[C@@H]2O | 14.2 | 34.5 | 14.2 | 28 | 13.3 | 28.2 | 9.61 | 22.6 | 2.06 | 8.38 | 4.84 | 22.4 | 8.02 | 37.3 | 9.42 | 22.9 | 7.01 | 21.6 | 12 | 25.2 |
| Cc1ccc(Cc2cnc(NC(=O)/C=C/c3cccc(C)c3)s2)cc1 | 0.0808 | 0.843 | 1.35 | > 100 | 0.85 | > 59.7 | 0.224 | 23.1 | 0.104 | 0.845 | 0.212 | 5.86 | 0.447 | > 44.5 | 0.149 | 0.9 | 0.395 | 9.54 | 0.0645 | 25.3 |
| CNC(=S)NC(=O)c1c(Cl)n(C(=O)OC(C)(C)C)c2ccccc12 | 83 | > 100 | > 100 | > 100 | > 100 | > 100 | 79.9 | > 100 | 96 | > 100 | 45.8 | > 100 | 89.1 | > 100 | 35 | > 100 | 73.8 | > 100 | 56.2 | > 100 |
| COc1cc2ncn(-c3cc(O[C@@H](C)c4ccccc4Cl)c(C(N)=O)s3)c2cc1OC | 1.76 | > 25 | 3.84 | > 25 | 0.803 | > 25 | 2.7 | > 25 | 3.86 | > 25 | 2.11 | 13.4 | 1.45 | > 25 | 0.832 | > 25 | 5.3 | > 25 | 0.638 | > 25 |
